Patent US20090104157A1, “UTILIZATION OF BACTERIOPHAGE TO CONTROL BACTERIAL CONTAMINATION IN FERMENTATION PROCESSES” (E. I. du Pont de Nemours and Company, priority 2007, published 2009)

What was measured:
[1] = system: Lactobacillus plantarum ATCC 8014 in corn mash; experiment: Level of L. plantarum in inoculated corn mash by plating on MRS agar (Example 2); type: cell-based; details: 3 ppm
Experimental: Samples of corn mash were collected from a commercial fuel ethanol plant. The corn mash was collected immediately after liquefaction, prior to entry into fermentation. Corn mash samples were frozen upon arrival and defrosted for use in experiments. Lactobacillus plantarum ATCC 8014 was cultured overnight in MRS broth (Difco, Sparks, Md.). Samples of corn mash were inoculated with L. plantarum at approximately 10^4 CFU/ml. This level of bacterial contamination is common in fuel ethanol plants. L. plantarum bacteriophage (B-8014) were prepared and titered using the overlay method on MRS agar (as described in Example 1). One sample of corn mash received no treatment. A second sample was treated by the addition of 3 parts per million (ppm) of Penicillin G. Three additional samples were treated with phage at a bacteria to phage ratio of 1:1, 1:10, and 1:100. All mash samples were incubated at 33° C., the temperature at which commercial fermentation takes place. The level of bacteria remaining in the test samples was determined by decimal dilutions in phosphate-buffered saline followed by plating of these dilutions onto plates of MRS agar. Plates were incubated overnight at 33° C. and colonies were enumerated.

L. plantarum ATCC 8014 = experiment: Growth of L. plantarum in MRS broth by optical density (Example 1); type: cell-based, Lactobacillus plantarum; details: 1 ppm, after 40 hours of incubation
Source text: Lactobacillus plantarum is a bacterium commonly isolated from contaminated fuel ethanol fermentation. In this example, a spectrophotometer was used to quantify the growth of L. plantarum in laboratory media. The use of a spectrophotometer allowed rapid determination of bacterial levels by optical density. The optical density indicates the amount of light (at a wavelength of 450 nm) absorbed by a sample. High levels of bacterial growth in a sample well result in higher optical density.
L. plantarum ATCC 8014 was cultured overnight in MRS broth (available from Difco, Sparks, Md.) at 30° C. Stocks of L. plantarum ATCC 8014 bacteriophage (bacteriophage cocktail is referred to in the Examples as “B-8014”) were prepared and titered using the overlay method (Adams, M. H. The Bacteriophages, Interscience Publishers, New York, 1959) with MRS agar. Since bacteriophage (phage) are viruses, they are unable to replicate outside of their bacterial host. Therefore, to enumerate phage, cultures of host bacteria were prepared and mixed with dilutions of phage. These mixtures were placed onto a petri dish containing agar and incubated overnight. The presence of clear zones on “lawns” of bacteria indicated phage infection. These clear zones are known as “plaques” and therefore, phage levels are commonly referred to as plaque forming units per milliliter (PFU/ml). […]

CC1(C)S[C@@H]2[C@H](NC(=O)Cc3ccccc3)C(=O)N2[C@H]1C(=O)O [Penicillin G]
effect on growth of L. plantarum [1]: did not affect or control growth
Log CFU/ml at 0 hours ([1]; 33° C.): 4.86 Log CFU/ml
Log CFU/ml at 24 hours ([1]; 33° C.): 9.09 Log CFU/ml
Log CFU/ml at 40 hours ([1]; 33° C.): 9.19 Log CFU/ml
optical density at 450 nm compared with control wells (L. plantarum ATCC 8014): higher
reduction of growth of L. plantarum (L. plantarum ATCC 8014): not effective
